Test results published in article PMC12525867, “Aromaticity Tuning in Biaryl Monophosphines and Their Derivatives” (Molecules, 2025).
In brackets after ≈: the same amount, converted by molar mass.

Assays:
[1] = Cytotoxicity, microculture tetrazolium (MTT) test, VERO; type: cell-based; conditions: African green monkey, ATCC CCL-81; VERO (normal kidney cells), 24 h incubation, MTT; ± SD
Experimental: (§1) The cytotoxicity of biaryl monophosphines was tested in vitro in normal (VERO) and cancer-derived (H1HeLa) cells after 24 h of incubation using a microculture tetrazolium test. Table 2 presents the CC50 (concentrations decreasing the cellular viability by 50%) values calculated from dose–response cytotoxicity curves (Figure 4).
(§2) Cytotoxicity was evaluated using a microculture tetrazolium test as previously described, and details can be found in the Supplementary Materials. The cell lines used in the presented study were acquired from the American Type Culture Collection (ATCC); the one used for cytotoxicity testing included non-cancerous VERO (kidney; ATCC CCL-81) cells and cancer-originating H1HeLa (cervical adenocarcinoma; ATCC CRL-1958) cells. VERO cells were cultured in Dulbecco’s Modified Eagle’s Medium (DMEM; Corning, Tewksbury, MA, USA), while Eagle’s Minimum Essential Medium (MEM; Corning) was used for H1HeLa. Antibiotics (penicillin–streptomycin solution, Corning) and fetal bovine serum (FBS, Corning) were added to cell media. Cells were incubated in a 5% CO2 atmosphere at 37 °C (CO2 incubator, Panasonic Healthcare Co., Tokyo, Japan). Briefly, the monolayers of VERO or H1HeLa cells in 96-well plates (Falcon, Corning) were treated with serial dilutions of selected compounds for 24 h. After this, the medium was removed, the plates were washed with phosphate buffered saline (PBS; Corning), a 10% solution of (3-(4,5-dimethylthiazol-2-yl)-2,5-diphenyltetrazolium bromide (MTT; Sigma-Aldrich, St. Louis, MO, USA) (5 mg/mL) in FBS-free cell media was added, and the incubation continued for the next 4 h. Subsequently, the precipitated formazan crystals were dissolved, and after overnight incubation at 37 °C, the Synergy H1 Multi-Mode Microplate Reader (BioTek Instruments, Inc., Winooski, VT, USA) with Gen5 software (ver. 3.09.07; BioTek Instruments, Inc.) was used for absorbance acquisition (540 and 620 nm). Data was exported to GraphPad Prism (ver. 10) to calculate the CC50 values (50% cytotoxic concentration) from dose–response curves.
(§3) Aromaticity Tuning in Biaryl Monophosphines and Their Derivatives […]
(§4) Cell line maintenance and in vitro experiments
(§5) The cytotoxicity of selected biaryl monophosphines was evaluated in vitro towards normal VERO (ATCC, CCL-81) cells and cancer-derived cell line H1HeLa (cervical adenocarcinoma; ATCC (American Type Culture Collection) CRL-1958) using 3-(4,5-dimethylthiazol-2-yl)-2,5-diphenylte-trazolium bromide (MTT) based protocol.
(§6) Media used for in vitro culturing included Dulbecco's Modified Eagle's Medium (DMEM, Corning, Tewksbury, MA, USA) used for VERO cells and Modified Eagle Medium (MEM, Corning) used for H1HeLa. Cell media used in the experiments were supplemented with antibiotics (Penicil-lin-Streptomycin Solution, Corning) and fetal bovine serum (FBS, Corning) – 10% (cell passaging) and 2% (cell maintenance and experiments). Phosphate-buffered saline (PBS) and trypsin were bought from Corning, whereas MTT (3-(4,5-dimethylthiazol-2-yl)-2,5-diphenyltetrazolium bromide) from Sigma (Sigma-Aldrich, St. Louis, MO, USA). SDS was purchased from PanReac Applichem (Darmstadt, Germany). Incubation was carried out in a 5% CO2 atmosphere at 37°C (CO2 incubator, Panasonic Healthcare Co., Tokyo, Japan).
(§7) Concentrations of cells for passaging were as follows: VERO – 1.5*10^5 cells/mL, H1HeLa – 2*10^5 cells/mL. Routine observations of cell cultures and experiments were carried out using an in-verted microscope (CKX41, Olympus Corporation, Tokyo, Japan) equipped with a ca mera (Moti-cam 3+, Motic, Hong Kong), and the results were recorded (Motic Images Plus 2.0, Motic).
(§8) Stock solutions of biaryl monophosphines were prepared by dissolving the samples in cell culture grade DMSO (PanReac Applichem).
(§9) Evaluation of cytotoxicity
(§10) Cytotoxicity was tested using an MTT-based protocol. The cells were passaged into 96-well plates (Falcon, TC-treated, Corning) and, after overnight incubation, treated with serial dilutions of […]

VERO cells = assay: as above; type: cell-based; conditions: VERO, 24 h, microscopy
Experimental: as §1, §2, §3, §4, §5, §6, §7, §8, §9, §10

P. mirabilis ATCC 12453 = assay: Antibacterial screening, broth microdilution (MIC/MBC); type: cell-based, Proteus mirabilis; conditions: Proteus mirabilis, ATCC12453; P. mirabilis ATCC 12453, MHB, 24 h, 35 °C; read-out: MIC
Experimental: (§11) The antimicrobial activities of a series of compounds 1–5 were tested through the utilization of seven reference species, encompassing both Gram-positive (Staphylococcus aureus ATCC 29213, Staphylococcus epidermidis ATCC 12228, Micrococcus luteus ATCC 10240) and Gram-negative (Escherichia coli ATCC 25922, Klebsiella pneumoniae ATCC 13883, Proteus mirabilis ATCC 12453, Acinetobacter baumannii ATCC 19606) bacteria as model microorganisms. For this purpose, microbial suspensions were prepared in sterile saline (0.85% NaCl) with an optical density of 0.5 McFarland standard, yielding a concentration of 150 × 10^6 CFU/mL (CFU, colony-forming units). All of the stock solutions of the tested compounds were dissolved in DMSO. Amoxicillin (Glentham Life Sciences Ltd., Corsham, UK) was used as a positive control.
(§12) The MIC values of the tested compounds were determined by serial twofold dilutions of 1–5 in Mueller Hinton Broth (MHB, Biomaxima, Lublin, Poland). The range of final 1–5 concentrations used was from 0.49 up to 1000 μg/mL, and for amoxicillin from 0.12 up to 250 μg/mL in the 96-well microtiter plates (Medlab, Raszyn, Poland), starting with 98 μL MHB and 2 μL bacterial inoculum added to each well. Positive controls consisted of 100 μL MHB in each well with the tested compounds at the same concentration range. The negative controls consisted of 100 μL of MHB only. Each set of tests and controls was established with three replicates. The microtiter plates were then subjected to an incubation period of 24 h at a temperature of 35 ± 2 °C. After incubation, the optical density of the microbial growth was measured at a wavelength of 600 nm using a microplate reader, the Biotek Elx800 (BioTek Instruments, Inc., Winooski, VT, USA). The MIC value was defined as the lowest concentration of the tested compound at which there was no visible growth of the tested microorganisms. The determination of the MIC values was achieved by employing the broth microdilution method, in accordance with the recommendations of the European Committee on Antimicrobial Susceptibility Testing (EUCAST). […] Then, the MHA plates were incubated overnight at 35 ± 2 °C. […] The MIC and MBC values were reported in μg/mL, according to the EUCAST reference.

A. baumannii ATCC 19606 = assay: as above; type: cell-based, Acinetobacter baumannii; conditions: Acinetobacter baumannii, ATCC19606; A. baumannii ATCC 19606, MHB, 24 h, 35 °C; read-out: MIC
Experimental: as §11, §12

MIC (P. mirabilis ATCC 12453) | MIC (A. baumannii ATCC 19606) | Structure (SMILES) | CC50 at 24 h [1] | influence on morphology of the cellular monolayer (VERO cells; 12.5 µg/mL) | influence on morphology of the cellular monolayer (VERO cells; 1.6 µg/mL) | influence on morphology of the cellular monolayer (VERO cells; 3.1 µg/mL) | influence on morphology of the cellular monolayer (VERO cells; 6.3 µg/mL)
> 1000 µg/mL | 1000 µg/mL (≈ 1760 µM) | COc1cc(OC)c(-c2c(P(=O)(C3CCCCC3)C3CCCCC3)c(OC)c3ccccc3c2OC)c(OC)c1 [Compound 1, Dicyclohexyl[1,4-dimethoxy-3-(2,4,6-trimethoxyphenyl)naphthalen-2-yl]phosphane oxide] | 9.82 ± 0.59 µg/mL | some fibroblast-shaped VERO cells were noticeable | – | – | –
> 1000 µg/mL | 500 µg/mL (≈ 987 µM) | COc1ccccc1-c1c(P(=O)(C2CCCCC2)C2CCCCC2)c(OC)c2ccccc2c1OC [Compound 2, Dicyclohexyl[1,4-dimethoxy-3-(2-methoxyphenyl)naphthalen-2-yl]phosphane oxide] | 7.78 ± 0.44 µg/mL | some fibroblast-shaped VERO cells were noticeable | – | – | –
> 1000 µg/mL | > 1000 µg/mL | COc1cc(OC)c(-c2c(P(=O)(C3CCCCC3)C3CCCCC3)c(O)c3ccccc3c2OC)c(OC)c1 [Compound 3, 2-(Dicyclohexylphosphoryl)-4-methoxy-3-(2,4,6-trimethoxyphenyl)naphthalen-1-ol] | 3.11 ± 0.14 µg/mL | destroyed the cellular monolayer | the cellular monolayer resembled the control cells | only a fraction of shrunken cells visible | most of the cells showed cytotoxic damage
